# Source: patent publication US6737383B1, “Herbicidal oxadiazolidines” (priority 1999, dated 2004)
# How the values were obtained:
# Green foxtail = assay: Test D green foxtail; assay type: in vivo; conditions: Rate 250 g/ha; Postemergence; 0 to 100 scale
# large crabgrass = assay: Test D large crabgrass; assay type: in vivo, Digitaria sanguinalis; conditions: Postemergence, 0 to 100 scale
# surinam grass = assay: Test D surinam grass; assay type: in vivo, Brachiaria decumbens; conditions: Postemergence, 0 to 100 scale
# Spanishneedles = assay: Test D Spanishneedles; assay type: in vivo, Bidens bipinnata; conditions: Postemergence, 0 to 100 scale
# purple nutsedge = assay: Test D purple nutsedge; assay type: in vivo, Cyperus rotundus; conditions: Postemergence, 0 to 100 scale
# velvetleaf = assay: Test A velvetleaf; assay type: in vivo, Abutilon theophrasti; conditions: 0 to 10 scale where 0 is no effect and 10 is complete control
# Procedure, shortened: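 Injury scored visually after about eleven greenhouse days against untreated plants, 0 = no effect, 10 = complete control. Compounds, formulated in surfactant-containing non-phytotoxic solvent, were applied as preemergence soil drench to sandy loam plantings and as postemergence runoff spray at the 1–2 leaf stage.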
# wild buckwheat = assay: Test E wild buckwheat; assay type: in vivo, Polygonum convolvulus; conditions: Postemergence; for Plant response rating, Wild buckwheat: 0 to 100 scale; for Wild buckwheat plant response rating: Rate 250 g/ha, 0 to 100 scale where 0 is no effect and 100 is complete control
# Protocol: (§1) Compounds evaluated in this test were formulated in a non-phytotoxic solvent mixture which included a surfactant and applied to plants that were in the 1- to 4-leaf stage (postemergence application). A mixture of sandy loam soil and greenhouse potting mix in a 60:40 ratio was used for the postemergence test.
# (§2) Plantings of these crops and weed species were adjusted to produce plants of appropriate size for the postemergence test. All plant species were grown using normal greenhouse practices. Crop and weed species include annual bluegrass (Poa annua), blackgrass (Alopecurus myosuroides), black nightshade (Solanum nigra), chickweed (Stellaria media), common poppy (Papaver rhoeas), deadnettle (Lamium amplexicaule), downy brome (Bromus tectorum), field violet (Viola arvensis), galium (Galium aparine), green foxtail (Setaria viridis), Italian ryegrass (Lolium multiflorum), jointed goatgrass (Aegilops cylindrica), kochia (Kochia scoparia), lambsquarters (Chenopodium album), littleseed canarygrass (Phalaris minor), rape (Brassica napus), redroot pigweed (Amaranthus retroflexus), Russian thistle (Salsola kali), scentless chamomile (Matricaria inodora), spring barley (Hordeum vulgare), sugar beet (Beta vulgaris), sunflower (Helianthus annuus), ivyleaf speedwell (Veronica hederaefolia), spring wheat (Triticum aestivum), winter wheat (Triticum aestivum), wild buckwheat (Polygonum convolvulus), wild mustard (Sinapis arvensis), wild oat (Avena fatua), windgrass (Apera spica-venti) and winter barley (Hordeum vulgare).
# (§3) Treated plants and untreated controls were maintained in a greenhouse for approximately 21 to 28 days, after which all treated plants were compared to untreated controls and visually evaluated. […] A dash response (-) means no test result.
# wild poinsettia = assay: Test C postemergence wild poinsettia; assay type: in vivo, Euphorbia heterophylla; conditions: 0 to 100 scale, 0 no effect, 100 complete control
# Protocol: (§4) Compounds evaluated in this test were formulated in a non-phytotoxic solvent mixture which included a surfactant and applied to plants that were grown for various periods of time before treatment (postemergence application). A mixture of sandy loam soil and greenhouse potting mix in a 60:40 ratio was used for the postemergence test.
# (§5) Plantings of these crops and weed species were adjusted to produce plants of appropriate size for the postemergence test. All plant species were grown using normal greenhouse practices. Crop and weed species include arrowleaf sida (Sida rhombifolia), barnyardgrass (Echinochloa crus-galli), cocklebur (Xanthium strumarium), common ragweed (Ambrosia elatior), corn (Zea mays), cotton (Gossypium hirsutum), eastern black nightshade (Solanum ptycanthum), fall panicum (Panicum dichotomiflorum), field bindweed (Convolvulus arvensis), giant foxtail (Setaria faberii), hairy beggarticks (Bidens pilosa), ivyleaf morningglory (Ipomoea hederacea), johnsongrass (Sorghum halepense), ladysthumb smartweed (Polygonum persicaria), lambsquarters (Chenopodium album), large crabgrass (Digitaria sanguinalis), purple nutsedge (Cyperus rotundus), redroot pigweed (Amaranthus retroflexus), soybean (Glycine max), surinam grass (Brachiaria decumbens), velvetleaf (Abutilon theophrasti) and wild poinsettia (Euphorbia heterophylla).
# (§6) Treated plants and untreated controls were maintained in a greenhouse for approximately 14, to 21 days, after which all treated plants were compared to untreated controls and visually evaluated. Plant response ratings, summarized in Table C, were based upon a 0 to 100 scale where 0 was no effect and 100 was complete control. A dash response (−) means no test result.
# rape = assay: Test E rape; assay type: in vivo, Brassica napus; conditions: Preemergence; for Rape plant response rating (0 to 100 scale): Rate 250 g/ha
# blackgrass = assay: Test E blackgrass; assay type: in vivo, Alopecurus myosuroides; conditions: Postemergence; for Plant response rating, Blackgrass: 0 to 100 scale; for Blackgrass plant response rating: Rate 250 g/ha, 0 to 100 scale where 0 is no effect and 100 is complete control
# Protocol: as §1, §2, §3
# Russian thistle = assay: Test E Russian thistle; assay type: in vivo, Salsola kali; conditions: Preemergence; for Russian thistle plant response rating (0 to 100 scale): Rate 250 g/ha
# hairy beggarticks = assay: Test C postemergence hairy beggarticks; assay type: in vivo, Bidens pilosa; conditions: 0 to 100 scale, 0 no effect, 100 complete control
# Protocol: as §4, §5, §6
# downy brome = assay: Test E downy brome; assay type: in vivo, Bromus tectorum; conditions: Postemergence; for Plant response rating, Downy brome: 0 to 100 scale; for Downy brome plant response rating: Rate 250 g/ha, 0 to 100 scale where 0 is no effect and 100 is complete control
# Protocol: as §1, §2, §3
# galium = assay: Test E galium; assay type: in vivo, Galium aparine; conditions: Preemergence; for Galium plant response rating (0 to 100 scale): Rate 250 g/ha
# [1] = system: Panicum dichotomiflorum (PANDI); assay: Test F preemergence, alone and in mixture with rimsulfuron, PANDI; assay type: in vivo; conditions: 21 days after treatment, 0-100 scale
# Procedure, shortened: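 Greenhouse pot plants treated preemergence with compound at 70 and 105 g ai/ha, rimsulfuron at 8.8 and 17.5 g ai/ha, or mixtures; 27° C day/21° C night, 14 hour photoperiod. Injury scored at 21 days after treatment against solvent-sprayed controls; expected additive effect of mixtures calculated by Colby's equation.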
# [2] = Rate 16 g/ha, 0 no injury, 100 complete control
# [3] = Rate 32 g/ha, 0 no injury, 100 complete control
# [4] = Rate 64 g/ha, 0 no injury, 100 complete control
# [5] = Rate 125 g/ha, 0 no injury, 100 complete control
# [6] = Rate 125 g/ha, 0 to 100 scale (0 no effect, 100 complete control)
# [7] = Rate 125 g/ha, 0 is no effect, 100 is complete control
# [8] = Rate 500 g/ha, 0 is no effect, 100 is complete control
# [9] = Rate 500 g/ha, 0 to 100 scale where 0 is no effect and 100 is complete control
structure (smiles),measurement,setting,value
CC(C)N(C(=O)n1oc(=O)n(C2CCCCCC2)c1=O)c1ccc(F)cc1F [Compound 342],"Plant response rating, Green foxtail",Green foxtail,100
same,"Plant response rating, Large crabgrass",large crabgrass; [2],0
same,"Plant response rating, Large crabgrass",large crabgrass; [3],0
same,"Plant response rating, Large crabgrass",large crabgrass; [4],40
same,"Plant response rating, Large crabgrass",large crabgrass; [5],100
same,"Plant response rating, Large crabgrass",large crabgrass; Rate 250 g/ha,100
same,"Plant response rating, Surinam grass",surinam grass; [2],0
same,"Plant response rating, Surinam grass",surinam grass; [3],0
same,Surinam grass plant response rating,surinam grass; [4],20
same,Surinam grass plant response rating,surinam grass; [5],30
same,"Plant response rating, Surinam grass",surinam grass; Rate 250 g/ha,40
same,"Plant response rating, Spanishneedles",Spanishneedles; [2],0
same,"Plant response rating, Spanishneedles",Spanishneedles; [3],0
same,Spanishneedles plant response rating,Spanishneedles; [4],0
same,Spanishneedles plant response rating,Spanishneedles; [5],0
same,"Plant response rating, Spanishneedles",Spanishneedles; Rate 250 g/ha,0
same,"Plant response rating, Purple nutsedge",purple nutsedge; [2],0
same,"Plant response rating, Purple nutsedge",purple nutsedge; [3],0
same,Purple nutsedge plant response rating,purple nutsedge; [4],0
same,Purple nutsedge plant response rating,purple nutsedge; [5],0
same,"Plant response rating, Purple nutsedge",purple nutsedge; Rate 250 g/ha,0
CCN(CC)C(=O)n1oc(=O)n(-c2c(C)cccc2C)c1=O [Compound 2],"Plant response rating, Velvetleaf","velvetleaf; Postemergence, Rate 1000 g/ha",0
same,"Plant response rating, Velvetleaf","velvetleaf; Pre-emergence, Rate 2000 g/ha",0
CC(C)N(C(=O)n1oc(=O)n(C)c1=O)c1ccc(F)cc1 [Compound 138],"Plant response rating, Wild buckwheat",wild buckwheat; Rate 125 g/ha,0
same,Wild buckwheat plant response rating,wild buckwheat,0
same,Plant response rating Wild poinsettia,wild poinsettia; Rate 140 g/ha,0
same,Plant response rating Wild poinsettia,wild poinsettia; Rate 280 g/ha,0
same,Plant response rating Wild poinsettia,wild poinsettia; Rate 560 g/ha,0
same,Plant response rating Wild poinsettia,wild poinsettia; Rate 1120 g/ha,70
same,"Plant response rating, Rape",rape; [6],30
same,Rape plant response rating (0 to 100 scale),rape,95
same,"Plant response rating, Blackgrass",blackgrass; Rate 125 g/ha,20
same,Blackgrass plant response rating,blackgrass,0
same,"Plant response rating, Russian thistle",Russian thistle; [6],10
same,Russian thistle plant response rating (0 to 100 scale),Russian thistle,20
same,Plant response rating H. beggarticks,hairy beggarticks; Rate 280 g/ha,10
same,Plant response rating H. beggarticks,hairy beggarticks; Rate 1120 g/ha,80
same,"Plant response rating, Downy brome",downy brome; Rate 125 g/ha,0
same,Downy brome plant response rating,downy brome,2
same,"Plant response rating, Galium",galium; [6],50
same,Galium plant response rating (0 to 100 scale),galium,70
CC(C)N(C(=O)n1oc(=O)n(C2CC2)c1=O)c1ccc(F)cc1 [Compound 242],"Plant response rating, Green foxtail",Green foxtail,100
same,"Plant response rating, Wild buckwheat",wild buckwheat; Rate 62 g/ha,50
same,"Plant response rating, Wild buckwheat",wild buckwheat; [7],10
same,Wild buckwheat plant response rating,wild buckwheat,10
same,"Plant response rating, Wild buckwheat",wild buckwheat; [8],0
same,Plant response rating Wild poinsettia,wild poinsettia; Rate 140 g/ha,0
same,Plant response rating Wild poinsettia,wild poinsettia; Rate 280 g/ha,0
same,Plant response rating Wild poinsettia,wild poinsettia; Rate 560 g/ha,0
same,Plant response rating Wild poinsettia,wild poinsettia; Rate 1120 g/ha,85
same,"Plant response rating, Rape",rape; [6],50
same,Rape plant response rating (0 to 100 scale),rape,60
same,"Plant response rating, Rape",rape; [9],85
same,"Plant response rating, Large crabgrass",large crabgrass; [2],0
same,"Plant response rating, Large crabgrass",large crabgrass; [3],100
same,"Plant response rating, Large crabgrass",large crabgrass; [4],100
same,"Plant response rating, Large crabgrass",large crabgrass; [5],100
same,"Plant response rating, Large crabgrass",large crabgrass; Rate 250 g/ha,100
same,"Plant response rating, Surinam grass",surinam grass; [2],0
same,"Plant response rating, Surinam grass",surinam grass; [3],30
same,Surinam grass plant response rating,surinam grass; [4],100
same,Surinam grass plant response rating,surinam grass; [5],100
same,"Plant response rating, Surinam grass",surinam grass; Rate 250 g/ha,100
same,"Plant response rating, Blackgrass",blackgrass; Rate 62 g/ha,60
same,"Plant response rating, Blackgrass",blackgrass; [7],0
same,Blackgrass plant response rating,blackgrass,10
same,"Plant response rating, Blackgrass",blackgrass; [8],50
same,PANDI Observed,"[1]; Alone: Cmpd. rate 70, Rimsulfuron 0",60%
same,PANDI Observed,"[1]; Alone: Cmpd. rate 105, Rimsulfuron 0",80%
same,"Plant response rating, Spanishneedles",Spanishneedles; [2],0
same,"Plant response rating, Spanishneedles",Spanishneedles; [3],0
same,Spanishneedles plant response rating,Spanishneedles; [4],0
same,Spanishneedles plant response rating,Spanishneedles; [5],0
same,"Plant response rating, Spanishneedles",Spanishneedles; Rate 250 g/ha,100
same,"Plant response rating, Russian thistle",Russian thistle; [6],20
same,Russian thistle plant response rating (0 to 100 scale),Russian thistle,30
same,"Plant response rating, Russian thistle",Russian thistle; [9],50
same,"Plant response rating, Purple nutsedge",purple nutsedge; [2],0
same,"Plant response rating, Purple nutsedge",purple nutsedge; [3],0
same,Purple nutsedge plant response rating,purple nutsedge; [4],0
same,Purple nutsedge plant response rating,purple nutsedge; [5],0
same,"Plant response rating, Purple nutsedge",purple nutsedge; Rate 250 g/ha,100
same,Plant response rating H. beggarticks,hairy beggarticks; Rate 1120 g/ha,90
same,"Plant response rating, Downy brome",downy brome; Rate 62 g/ha,30
same,"Plant response rating, Downy brome",downy brome; [7],30
same,Downy brome plant response rating,downy brome,30
same,"Plant response rating, Downy brome",downy brome; [8],40
same,"Plant response rating, Galium",galium; [6],0
same,Galium plant response rating (0 to 100 scale),galium,100
same,"Plant response rating, Galium",galium; [9],100
